Results as given in patent publication US20230330278A1, “METHODS FOR RADIOLABELLING PSMA BINDING LIGANDS AND THEIR KITS” (Novartis AG, priority 2020, published 2023).

What was measured:
[1] = cited from earlier work
[2] = Radiochemical purity and stability of 68GaPSMA-R2 by HPLC; assay type: physicochemical; settings: for stability to the radiolytic degradation / radiochemical purity: up to 4 hours; for stability to the radiolytic degradation: without gentisic acid; for radiochemical purity: without the gentisic acid
Description: Radiochemical purity and identification of ^68GaPSMA-R2 by HPLC
Chromatographic conditions
The molecule was labelled with ^68Ga using E&Z generator with an activity in the range of […]. The labelling was performed at 95° C. for 7 minutes with Gallium buffer (pH 3.2-3.8). Experiments were performed by testing different amount of gentisic acid as radiolytic scavenger and peptide amounts (15 μg and 30 μg). In all tests 20 mg of mannitol were added as cake forming.

[3] = tested on: tumor models; settings: current specific activity

Row | Compound | pKa (20° C.) [1] | stability to the radiolytic degradation [2] | stability to the radiolytic degradation ([2]; listed as 68Ga-PSMA-R2) | radiochemical purity [2] | radiochemical purity ([2]; listed as 68Ga-PSMA-R2) | 68Ga free ([2]; when gentisic acid is not used in the formulation) | biodistribution profile [3]
1 | O=C(O)CCC(=O)O [Succinic acid] | 4.22 | – | – | – | – | – | –
2 | O=C([O-])CN1CCN(CC(=O)[O-])CCN(CC(=O)NCCCCCC(=O)N(CCCC[C@H](NC(=O)N[C@@H](CCC(=O)O)C(=O)O)C(=O)O)Cc2ccc(Br)cc2)CCN(CC(=O)[O-])CC1.[68Ga+3] [68GaPSMA-R2] | – | good stability to the radiolytic degradation | intrinsic stability to the radiolytic degradation | higher than 92% | over 92% | under 2% | favourable biodistribution profile in tumor models (major uptake in tumor and kidneys, relatively low uptake in other organs)
